Test results taken from patent US20060160070A1, “Association-based epitome design” (Microsoft Corporation, priority 2004, published 2006).

Legend:
HLA A*0101 [1] = biological target: T1, HLA A*0101 (Homo sapiens, UniProt P04439, A114D/A174V/A182V/D101N/D185E/E176A/E190D/L180R/Q94H/R68K/S129P/T187R/V100A/V91M/W191G); assay: ITOPIA peptide binding assay; settings: 1.11×10^−4M of peptide
T1 construct: purchased
Procedure: (§1) Peptide binding, off-rate and affinity were measured according to the protocols described in the ITOPIA Epitope Discovery System Customer Guide. To conduct the experiments, ninety-six (96) micro-titer plates coated with MHC molecules representing the HLA alleles listed in Table 9 were used to identify candidate peptides. Determinations were performed in duplicate using an ELISA plate reader. The peptide binding assay used measures the ability of individual peptides to bind to the HLA molecules under standardized optimal binding conditions. The assay was performed for all the test peptides across the selected HLA alleles. The test peptides identified as “binders” were characterized further in terms of affinity and dissociation experiments. The off-rate assay used evaluates the dissociation of previously bound peptide at defined time points (expressed as the t1/2 value). The affinity assay used measures the relative binding affinities for the MHC molecules determined by incubating candidate peptides identified in the initial peptide binding assay at increasing concentrations (expressed as quantity of peptide needed to achieve 50% binding or ED50 value).
(§2) The binding of the test peptides (Table 8) to the HLA molecules (Table 9) was performed at a concentration of 1.11×10^−4M of peptide under optimal, standardized test conditions. A control peptide was run in parallel on the same plate and at the same concentration as the test peptides. […] The level of binding is expressed as a percent of positive control peptide binding for each allele.

HLA A*0201 [2] = biological target: T2, HLA A*0201 (Homo sapiens, UniProt P04439, D140Y/D185E/D98H/E176V/E277Q/G131W/G231S/I119V/I121R/I166T/I218V/L300P/L318F/N151K/N90K/P208A/P217A/Q86G/Q94H/R138H/R169H/T345S); assay: ITOPIA peptide binding assay; settings: 1.11×10^−4M of peptide
Procedure: as §1, §2

HLA A*0301 [3] = biological target: T3, HLA A*0301 (Homo sapiens, UniProt P04439); assay: ITOPIA peptide binding assay; settings: 1.11×10^−4M of peptide
T3 construct: purchased
Procedure: as §1, §2

HLA A*1101 [4] = biological target: T4, HLA A*1101 (Homo sapiens, UniProt P04439, A114D/D185E/E176A/F33Y/L180Q/S129P/T187R); assay: ITOPIA peptide binding assay; settings: 1.11×10^−4M of peptide
T4 construct: purchased
Procedure: as §1, §2

HLA A*2402 [5] = biological target: T5, HLA A*2402 (Homo sapiens, UniProt P04439, D101N/D140Y/D185E/E176V/E190D/F33S/G103R/G107R/I119L/I121M/I306V/K335N/L105A/L180Q/L300P/N151K/N90K/Q86E/Q94H/R106L/R138H/R89G/T104I/T345S/V100E/W191G/Y123F); assay: ITOPIA peptide binding assay; settings: 1.11×10^−4M of peptide
Procedure: as §1, §2

HLA B*0702 [6] = biological target: T6, HLA B*0702 (Homo sapiens, UniProt P01889); assay: ITOPIA peptide binding assay; settings: 1.11×10^−4M of peptide
T6 construct: purchased
Procedure: as §1, §2

HLA B*0801 [7] = biological target: T7, HLA B*0801 (Homo sapiens, UniProt P01889, A93T/A95T/D138N/E176V/E187T/K202T/Q94N/R180D/S35A/V36M/Y33D/Y91F); assay: ITOPIA peptide binding assay; settings: 1.11×10^−4M of peptide
T7 construct: purchased
Procedure: as §1, §2

HLA B*1501 [8] = biological target: T8, HLA B*1501 (Homo sapiens, UniProt P01889, A329T/A93T/A95T/C349S/D201E/D98Y/E187L/E204Q/E69M/E70A/K202T/N87E/Q94N/R155S/R180W/S121R/S35A/S48A/V306I/V36M/Y140S/Y91S); assay: ITOPIA peptide binding assay; settings: 1.11×10^−4M of peptide
T8 construct: purchased
Procedure: as §1, §2

HLA A*0201 [9] = biological target: T2, HLA A*0201; assay: ITOPIA off-rate assay; assay type: binding; settings: 37° C., one-phase exponential decay
Procedure: as §1
(§3) The peptides initially identified as binders were evaluated for stability based on their ability to remain bound to MHC molecules at 37° C. at time points 0, 0.5, 1, 1.5, 2, 4, 6 and 8 hours. […] The values obtained for each time point (in duplicate) are expressed (Table 11) as a percentage of the positive control. To calculate the t1/2 and goodness-of-fit, as measured by r^2, for each peptide, a one-phase exponential decay curve, with a plateau given equal to 0, was generated using […] PRISM software.

HLA A*2402 [10] = biological target: T5, HLA A*2402; assay: ITOPIA off-rate assay; assay type: binding; settings: 37° C., one-phase exponential decay
Procedure: as §1, §3

HLA A*0101 [11] = biological target: T1, HLA A*0101; assay: Multi-parametric analysis iScore; assay type: binding; set-up: scale not given here; settings: index integrating t1/2 and ED50
Procedure: (§4) Multi-parametric analysis was performed to integrate the half-life (t½) and ED50 parameters in an index (iScore). The iScore (Table 13) reflects the capability of a peptide to reconstitute with MHC molecules in a stable complex, defining its overall level of binding.

HLA A*0201 [12] = biological target: T2, HLA A*0201; assay: Multi-parametric analysis iScore; assay type: binding; set-up: scale not given here; settings: index integrating t1/2 and ED50
Procedure: as §4

HLA A*0301 [13] = biological target: T3, HLA A*0301; assay: Multi-parametric analysis iScore; assay type: binding; set-up: scale not given here; settings: index integrating t1/2 and ED50
Procedure: as §4

HLA A*1101 [14] = biological target: T4, HLA A*1101; assay: Multi-parametric analysis iScore; assay type: binding; set-up: scale not given here; settings: index integrating t1/2 and ED50
Procedure: as §4

HLA A*2402 [15] = biological target: T5, HLA A*2402; assay: Multi-parametric analysis iScore; assay type: binding; set-up: scale not given here; settings: index integrating t1/2 and ED50
Procedure: as §4

HLA B*0702 [16] = biological target: T6, HLA B*0702; assay: Multi-parametric analysis iScore; assay type: binding; set-up: scale not given here; settings: index integrating t1/2 and ED50
Procedure: as §4

HLA B*0801 [17] = biological target: T7, HLA B*0801; assay: Multi-parametric analysis iScore; assay type: binding; set-up: scale not given here; settings: index integrating t1/2 and ED50
Procedure: as §4

HLA B*1501 [18] = biological target: T8, HLA B*1501; assay: Multi-parametric analysis iScore; assay type: binding; set-up: scale not given here; settings: index integrating t1/2 and ED50
Procedure: as §4

HLA B*1501 [19] = biological target: T8, HLA B*1501; assay: ITOPIA off-rate assay; assay type: binding; settings: 37° C., one-phase exponential decay
Procedure: as §1, §3

HLA B*0702 [20] = biological target: T6, HLA B*0702; assay: ITOPIA off-rate assay; assay type: binding; settings: 37° C., one-phase exponential decay
Procedure: as §1, §3

HLA B*0801 [21] = biological target: T7, HLA B*0801; assay: ITOPIA off-rate assay; assay type: binding; settings: 37° C., one-phase exponential decay
Procedure: as §1, §3

## ALFYKLDVI [compound 158]
HLA A*0101 [1]
  level of binding, percent of positive control peptide binding: 1% of positive control
HLA A*0201 [2]
  level of binding, percent of positive control peptide binding: 62% of positive control
HLA A*0301 [3]
  level of binding, percent of positive control peptide binding: 14% of positive control
HLA A*1101 [4]
  level of binding, percent of positive control peptide binding: 1% of positive control
HLA A*2402 [5]
  level of binding, percent of positive control peptide binding: 99% of positive control
HLA B*0702 [6]
  level of binding, percent of positive control peptide binding: 3% of positive control
HLA B*0801 [7]
  level of binding, percent of positive control peptide binding: 5% of positive control
HLA B*1501 [8]
  level of binding, percent of positive control peptide binding: 3% of positive control
HLA A*0201 [9]
  A*0201 t1/2: 5.5 h
HLA A*2402 [10]
  A*2402 t1/2: 1.1 h
HLA A*0101 [11]
  iScore: 0
HLA A*0201 [12]
  iScore: 0.460
HLA A*0301 [13]
  iScore: 0
HLA A*1101 [14]
  iScore: 0
HLA A*2402 [15]
  iScore: 0.339
HLA B*0702 [16]
  iScore: 0
HLA B*0801 [17]
  iScore: 0
HLA B*1501 [18]
  iScore: 0

## CSSNITGLI [compound 154]
HLA A*0101 [1]
  level of binding, percent of positive control peptide binding: 5% of positive control
HLA A*0201 [2]
  level of binding, percent of positive control peptide binding: 44% of positive control
HLA A*0301 [3]
  level of binding, percent of positive control peptide binding: 0% of positive control
HLA A*1101 [4]
  level of binding, percent of positive control peptide binding: 1% of positive control
HLA A*2402 [5]
  level of binding, percent of positive control peptide binding: 29% of positive control
HLA B*0702 [6]
  level of binding, percent of positive control peptide binding: 5% of positive control
HLA B*0801 [7]
  level of binding, percent of positive control peptide binding: 6% of positive control
HLA B*1501 [8]
  level of binding, percent of positive control peptide binding: 40% of positive control
HLA A*0201 [9]
  A*0201 t1/2: 0.4 h
HLA A*2402 [10]
  A*2402 t1/2: 1.5 h
HLA B*1501 [19]
  B*1501 t1/2: 3.8 h
HLA A*0101 [11]
  iScore: 0
HLA A*0201 [12]
  iScore: 0.114
HLA A*0301 [13]
  iScore: 0
HLA A*1101 [14]
  iScore: 0
HLA A*2402 [15]
  iScore: 0.038
HLA B*0702 [16]
  iScore: 0
HLA B*0801 [17]
  iScore: 0
HLA B*1501 [18]
  iScore: 0.112

## CSSNITGLL [compound 69]
HLA A*0101 [1]
  level of binding, percent of positive control peptide binding: 4% of positive control
HLA A*0201 [2]
  level of binding, percent of positive control peptide binding: 37% of positive control
HLA A*0301 [3]
  level of binding, percent of positive control peptide binding: 0% of positive control
HLA A*1101 [4]
  level of binding, percent of positive control peptide binding: 1% of positive control
HLA A*2402 [5]
  level of binding, percent of positive control peptide binding: 26% of positive control
HLA B*0702 [6]
  level of binding, percent of positive control peptide binding: 5% of positive control
HLA B*0801 [7]
  level of binding, percent of positive control peptide binding: 4% of positive control
HLA B*1501 [8]
  level of binding, percent of positive control peptide binding: 30% of positive control
HLA A*0201 [9]
  A*0201 t1/2: 0.3 h
HLA A*2402 [10]
  A*2402 t1/2: 1.1 h
HLA B*1501 [19]
  B*1501 t1/2: 3.1 h
HLA A*0101 [11]
  iScore: 0
HLA A*0201 [12]
  iScore: 0.081
HLA A*0301 [13]
  iScore: 0
HLA A*1101 [14]
  iScore: 0
HLA A*2402 [15]
  iScore: 0.016
HLA B*0702 [16]
  iScore: 0
HLA B*0801 [17]
  iScore: 0
HLA B*1501 [18]
  iScore: 0.067

## FPRIWLHGL [compound 152]
HLA A*0101 [1]
  level of binding, percent of positive control peptide binding: 0% of positive control
HLA A*0201 [2]
  level of binding, percent of positive control peptide binding: 9% of positive control
HLA A*0301 [3]
  level of binding, percent of positive control peptide binding: 0% of positive control
HLA A*1101 [4]
  level of binding, percent of positive control peptide binding: 0% of positive control
HLA A*2402 [5]
  level of binding, percent of positive control peptide binding: 41% of positive control
HLA B*0702 [6]
  level of binding, percent of positive control peptide binding: 132% of positive control
HLA B*0801 [7]
  level of binding, percent of positive control peptide binding: 39% of positive control
HLA B*1501 [8]
  level of binding, percent of positive control peptide binding: 3% of positive control
HLA B*0702 [20]
  B*0702 t1/2: 1.1 h
HLA B*0801 [21]
  B*0801 t1/2: 1.8 h
HLA A*0101 [11]
  iScore: 0
HLA A*0201 [12]
  iScore: 0
HLA A*0301 [13]
  iScore: 0
HLA A*1101 [14]
  iScore: 0
HLA A*2402 [15]
  iScore: 0
HLA B*0702 [16]
  iScore: 0.421
HLA B*0801 [17]
  iScore: 0.189
HLA B*1501 [18]
  iScore: 0
